This is an account of results in the NIST ThermoML archive (doi:10.1021/je1009976).

± gives the expanded uncertainty stated by the source.

For data set [1] the following is noted: 101 kPa, Liquid; for viscosity: Capillary tube (Ostwald / Ubbelohde) method; for mass density: Pycnometric method.
A short description of data set [2]: xn = mol fraction of the nth substance listed. The following applies: 101 kPa, Liquid, x2 = 0; for viscosity: Capillary tube (Ostwald / Ubbelohde) method; for mass density: Pycnometric method.

Regarding `OCCOCCO` [diethylene glycol], the viscosity in data set [1] (303.15 K) is 22.16 ± 0.46 mPa·s; in data set [1] (308.15 K) it was 17.93 ± 0.44 mPa·s; in data set [1] (313.15 K), 14.71 ± 0.43 mPa·s; in data set [1] (318.15 K), 12.19 ± 0.42 mPa·s; in data set [1] (323.15 K) it was 10.19 ± 0.41 mPa·s. Besides, the mass density in data set [1] (303.15 K) stood at 1109.48 ± 0.75 kg/m3; in data set [1] (308.15 K), 1105.72 ± 0.75 kg/m3; in data set [1] (313.15 K) it was 1102.11 ± 0.76 kg/m3; in data set [1] (318.15 K), 1098.35 ± 0.76 kg/m3; in data set [1] (323.15 K), 1094.94 ± 0.75 kg/m3.

Turning to `O` [water] + OCCOCCO, the viscosity in data set [2] (303.15 K) is on record as 0.801 ± 0.4 mPa·s; in data set [2] (308.15 K), 0.722 mPa·s; in data set [2] (313.15 K) it was 0.656 mPa·s; in data set [2] (318.15 K) it was 0.598 mPa·s; in data set [2] (323.15 K), 0.549 mPa·s. For the same compound, the mass density in data set [2] (308.15 K) is 994.12 ± 0.39 kg/m3; in data set [2] (318.15 K), 990.3 ± 0.44 kg/m3.

The viscosity is the resistance of a fluid to flow. For orientation: mass density means mass per unit of volume.
